We go through seven compounds from PMC10221946, “Screening of Tyrosinase, Xanthine Oxidase, and α-Glucosidase Inhibitors from Polygoni Cuspidati Rhizoma et Radix by Ultrafiltration and HPLC Analysis” (Molecules, 2023).

The test system of test [1] is TYR. The test can be described thus: Kinetic analysis (Lineweaver–Burk) on TYR. Type of test: biochemical. Particulars: Lineweaver–Burk plot, L-tyrosine 1.0~5.0 mM, TYR 200 U/mL. On the procedure:
(§1) Subsequently, kinetic analysis was conducted using Lineweaver–Burk plots to investigate the inhibition modes on enzymes caused by methylgallate and polydatin. Competitive, noncompetitive, and mixed inhibitions are three common modes in enzyme kinetic analysis. […] All of the straight lines almost intersect on the Y axis at a certain point. […] All of the straight lines almost intersect on the X axis at a certain point. […] All of the straight lines usually intersect in the quadrants at one point.
(§2) In this work, Lineweaver–Burk was used to investigate the inhibition type of methylgallate and polydatin on enzymes. For TYR, the concentration of the enzyme was kept constant at 200 U/mL, and various concentrations of L-tyrosine (1.0~5.0 mM) were prepared. Various concentrations of methylgallate (0.0~1.3 mM) and polydatin (0.0~0.4 mM) were also provided. For XOD, the concentration of the enzyme was kept constant at 0.05 U/mL, and various concentrations of xanthin (0.06~0.50 mM) were prepared. Various concentrations of polydatin (0.0~0.5 mM) were also provided. For α-GLU, the concentration of the enzyme was kept constant at 0.15 U/mL, and various concentrations of ρNPG (0.8~5.0 mM) were prepared. Various concentrations of polydatin (0.0~3.6 mM) were also provided. GraphPad Prism 5.0 software (USA) was used for the calculation.

The subject of test [2] is TYR. The test can be described thus: UF-HPLC screening, binding degree with TYR. The conditions noted are these: PCR extraction 5 mg/mL, 200 U/mL TYR, 37 °C 60 min, active vs inactive enzyme peak area. As to the method: (§3) The UF experiment was performed according to the method described in the literature, with slight modifications. In the experimental group, 200 µL of the PCR extraction (5 mg/mL) was mixed with 200 µL of 3 enzyme solutions (200 U/mL of TYR, 4 U/mL of XOD, and 6 U/mL of α-GLU, respectively). The mixtures were incubated at 37 °C for 60 min, and then 200 μL of each of them was transferred to a 3 KDa molecular weight cut-off ultrafiltration centrifuge tube to separate the unbound compounds from the enzyme–ligand complexes by centrifugation (9400× g, 30 min). Finally, the ultrafiltration filter was washed three times with 5% methanol–PBS under centrifugal conditions (9400× g, 30 min) to completely remove any unbound components. The concentration and pH of the PBS used for the different enzymes were the same as for the offline inhibition tests.
(§4) Finally, the unbound component solutions of the experimental and control groups were analyzed by HPLC. […] Binding degree = (1 − P2/P1) × 100%(2)
(§5) HPLC condition: An Agilent 1260 high-performance liquid chromatography system (Agilent Technologies, Santa Clara, CA, USA), equipped with a quaternary pump system, an auto-sampler, a column oven, and a diode array detector, was employed in the current experiment. The sample was separated on an Agilent Poroshell 120 EC-C18 column (100 mm × 4.6 mm, 2.7 μm). The column temperature was set at 30 °C. The mobile phase was 0.1% aqueous formic acid (A) and acetonitrile (B), with a gradient elution procedure of 5% B (0 min), 5% B (3 min), 20% B (23 min), 24% B (28 min), 60% B (32 min), and 100% B (38 min). The flow rate was 0.6 mL/min. The detection wavelength was set at 290 nm, and the injection volume was 5.0 µL.

Test [3] deals with α-GLU. The test can be described thus: UF-HPLC screening, binding degree with α-GLU. The conditions noted are these: PCR extraction 5 mg/mL, 6 U/mL α-GLU, 37 °C 60 min, active vs inactive enzyme peak area. As to the method:
as §3, §4, §5

In a further test the target is xanthine oxidase (XOD) (Bos taurus, UniProt P80457). The test can be described thus: Xanthine oxidase (XOD) inhibition test, offline 96-well microplate.
xanthine oxidase (XOD), sequence (P80457 whole entry): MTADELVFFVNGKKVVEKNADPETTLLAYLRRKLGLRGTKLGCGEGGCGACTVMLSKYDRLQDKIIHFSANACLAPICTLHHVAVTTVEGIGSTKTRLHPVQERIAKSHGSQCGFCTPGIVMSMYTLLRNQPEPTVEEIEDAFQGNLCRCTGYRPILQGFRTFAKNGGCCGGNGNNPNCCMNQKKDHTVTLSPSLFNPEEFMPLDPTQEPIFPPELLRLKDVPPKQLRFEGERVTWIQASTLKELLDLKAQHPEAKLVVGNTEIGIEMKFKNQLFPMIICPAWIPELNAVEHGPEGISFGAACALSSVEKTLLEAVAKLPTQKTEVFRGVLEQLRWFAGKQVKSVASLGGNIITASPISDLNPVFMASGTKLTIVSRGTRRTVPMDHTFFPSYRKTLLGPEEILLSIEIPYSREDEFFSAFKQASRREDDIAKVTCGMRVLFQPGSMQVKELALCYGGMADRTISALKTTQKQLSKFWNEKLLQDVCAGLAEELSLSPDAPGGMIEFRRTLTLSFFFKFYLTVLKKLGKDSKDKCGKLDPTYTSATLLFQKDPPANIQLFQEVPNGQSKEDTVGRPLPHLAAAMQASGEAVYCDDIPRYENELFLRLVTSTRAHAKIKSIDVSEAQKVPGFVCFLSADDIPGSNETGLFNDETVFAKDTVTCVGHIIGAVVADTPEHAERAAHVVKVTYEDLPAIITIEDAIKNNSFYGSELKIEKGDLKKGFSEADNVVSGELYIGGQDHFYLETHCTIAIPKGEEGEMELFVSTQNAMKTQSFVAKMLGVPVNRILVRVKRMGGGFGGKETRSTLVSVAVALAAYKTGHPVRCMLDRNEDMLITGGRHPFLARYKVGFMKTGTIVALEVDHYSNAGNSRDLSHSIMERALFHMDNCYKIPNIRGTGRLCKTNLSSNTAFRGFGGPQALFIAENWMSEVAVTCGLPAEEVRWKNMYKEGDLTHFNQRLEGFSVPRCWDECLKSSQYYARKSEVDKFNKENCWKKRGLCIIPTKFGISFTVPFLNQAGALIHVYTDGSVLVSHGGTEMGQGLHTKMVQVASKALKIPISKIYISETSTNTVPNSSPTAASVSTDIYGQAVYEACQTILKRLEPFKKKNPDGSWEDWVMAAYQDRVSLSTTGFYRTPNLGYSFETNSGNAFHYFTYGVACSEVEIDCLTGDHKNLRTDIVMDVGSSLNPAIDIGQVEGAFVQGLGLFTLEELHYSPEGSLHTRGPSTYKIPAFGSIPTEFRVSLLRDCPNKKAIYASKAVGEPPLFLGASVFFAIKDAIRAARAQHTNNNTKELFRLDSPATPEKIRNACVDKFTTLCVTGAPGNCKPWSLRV
Another test concerns the target T1, tyrosinase (TYR) (Agaricus bisporus, UniProt C7FF04).
T1 construct: purchased Sigma-Aldrich (Shanghai, China)
The test can be described thus: Tyrosinase (TYR) inhibition test, offline 96-well microplate. Type of test: biochemical. On the procedure:
The reaction was incubated at 25 °C for 50 min. […] Inhibition (%) = [(Abscontrol − Abssample)/Abscontrol] × 100%(1)

In test [4] the target is T2, XOD (Bos taurus, UniProt P80457).
T2 construct: purchased Sigma-Aldrich (Shanghai, China)
T2 sequence (P80457 whole entry): as above
The test can be described thus: UF-HPLC screening, binding degree with XOD. Particulars: PCR extraction 5 mg/mL, 4 U/mL XOD, 37 °C 60 min, active vs inactive enzyme peak area. On the procedure:
as §3, §4, §5

The test system of test [5] is α-GLU. The test can be described thus: Kinetic analysis (Lineweaver–Burk) on α-GLU. Type of test: biochemical. Particulars: Lineweaver–Burk plot, ρNPG 0.8~5.0 mM, α-GLU 0.15 U/mL. On the procedure:
as §1, §2

In test [6] the target is T2, XOD. The test can be described thus: Kinetic analysis (Lineweaver–Burk) on XOD. In kind it is biochemical. The conditions noted are these: Lineweaver–Burk plot, xanthin 0.06~0.50 mM, XOD 0.05 U/mL. As to the method: as §1, §2

T1 sequence (C7FF04 1-392 limits assumed): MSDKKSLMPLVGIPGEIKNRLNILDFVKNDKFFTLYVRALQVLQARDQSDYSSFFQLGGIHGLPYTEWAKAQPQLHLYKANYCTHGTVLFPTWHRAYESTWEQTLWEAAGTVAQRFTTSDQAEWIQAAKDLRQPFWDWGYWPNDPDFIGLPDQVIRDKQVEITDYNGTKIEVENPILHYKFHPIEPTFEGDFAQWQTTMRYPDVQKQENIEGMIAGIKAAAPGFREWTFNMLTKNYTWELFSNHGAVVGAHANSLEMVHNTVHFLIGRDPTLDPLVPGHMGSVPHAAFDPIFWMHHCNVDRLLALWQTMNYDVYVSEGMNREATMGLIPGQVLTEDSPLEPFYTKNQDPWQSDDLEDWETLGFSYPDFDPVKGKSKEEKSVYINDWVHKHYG
Description for xanthine oxidase (XOD): In the XOD inhibition assay, each well contained 30 μL of the PCR sample, 30 μL of XOD (0.05 U/mL, dissolved in 200 mM of phosphate buffer, pH 8.5), and 15 μL of NBT (2 mg/mL, dissolved in 200 mM of phosphate buffer, pH 8.5). […] The reaction was stopped by adding 15 µL of SDS (10%). The reaction solution was tested at 560 nm.

As a reminder, the IC50 is the concentration at which inhibition is half-maximal. A high value points to weaker potency. For the compound `OC[C@H]1O[C@@H](Oc2cc(O)cc(/C=C/c3ccc(O)cc3)c2)[C@H](O)[C@@H](O)[C@@H]1O` [Polydatin (5), Polydatin], the “inhibition mode on TYR” value in the test with TYR [1] is “mixed type”. Moreover, the “Binding degree: TYR” value in the test on TYR [2] (listed as Peak 5) worked out at 80.74%. The “Binding degree: α-GLU” value in the test on α-GLU [3] (listed as Peak 5) was found to be 16.51%. Moreover, the IC50 against xanthine oxidase (XOD) was 2130 µM; at tyrosinase (TYR), 188 µM. In addition, the “Binding degree: XOD” value on XOD [4] (listed as Peak 5) is reported as 55.80%. The “inhibition mode on α-GLU” value in the test on α-GLU [5] was “mixed type”. Further, on XOD [6], the “inhibition mode on XOD” value was “competitive type”.

In the case of `OC[C@H]1O[C@@H](Oc2ccc(/C=C/c3cc(O)cc(O)c3)cc2)[C@H](O)[C@@H](O)[C@@H]1O` [Resveratrol-4′-O-D-glucoside (4), Resveratrol-4′-O-D-glucoside], in the test with TYR [2], the “Binding degree: TYR” value came to 71.32%. For the same compound, the “Binding degree: α-GLU” value in the test with α-GLU [3] was found to be 14.58%. In addition, at XOD [4], the “Binding degree: XOD” value is reported as 30.66%.

As for `OC[C@H]1O[C@@H](Oc2cc(O)cc(/C=C/c3ccc(O)cc3)c2)[C@H](O)[C@@H](O)[C@@H]1O` [Resveratrol-5-O-D-glucoside (7), Resveratrol-5-O-D-glucoside], the “Binding degree: TYR” value with TYR [2] (listed as Peak 7) was 70.51%. The “Binding degree: α-GLU” value in the test with α-GLU [3] (listed as Peak 7) is recorded as 0.00%. For the same compound, the “Binding degree: XOD” value on XOD [4] (listed as Peak 7) is reported as 11.65%.

Take `OC[C@H]1O[C@@H](Oc2ccc(/C=C/c3cc(O)cc(O[C@@H]4O[C@H](CO)[C@@H](O)[C@H](O)[C@H]4O)c3)cc2)[C@H](O)[C@@H](O)[C@@H]1O` [Polydatin-4′-O-D-glucoside (3), Polydatin-4′-O-D-glucoside]: the “Binding degree: TYR” value with TYR [2] came out at 57.64%. The “Binding degree: α-GLU” value in the test with α-GLU [3] is 0.00%. Moreover, the “Binding degree: XOD” value at XOD [4] was found to be 0.00%.

Turning to `COC(=O)c1cc(O)c(O)c(O)c1` [Methylgallate (1), Methylgallate], the “inhibition mode on TYR” value in the test with TYR [1] is “noncompetitive type”. Also, the “Binding degree: TYR” value in the test on TYR [2] stood at 36.03%. For the same compound, the “Binding degree: α-GLU” value in the test on α-GLU [3] amounted to 0.00%. The same compound gave an IC50 against tyrosinase (TYR) of 555 µM. Moreover, the “Binding degree: XOD” value on XOD [4] amounted to 0.00%.

`O=C(O)CC(=O)OCC1OC(Oc2cc(O)cc(C=Cc3ccc(O)cc3)c2)C(O)C(O)C1O` (stereo not shown) [Malonyl glucoside resveratrol (6), Malonyl glucoside resveratrol]: the “Binding degree: TYR” value in the test on TYR [2] is 57.00%. Moreover, the “Binding degree: α-GLU” value with α-GLU [3] amounted to 11.90%. Also, the “Binding degree: XOD” value on XOD [4] was 49.77%.

For the compound `O=C(OC[C@H]1O[C@@H](OC(=O)c2cc(O)c(O)c(O)c2)[C@H](O)[C@@H](O)[C@@H]1O)c1cc(O)c(O)c(O)c1` [1,6-Di-O-galloyl-D-glucose (2), 1,6-Di-O-galloyl-D-glucose], in the test with TYR [2], the “Binding degree: TYR” value is 77.53%. The “Binding degree: α-GLU” value with α-GLU [3] stood at 0.00%. For the same compound, the “Binding degree: XOD” value on XOD [4] was 50.69%.
